Laboratory results taken from US20250222063A1, “TOPICAL FORMULATION FOR USE IN THE TREATMENT OR PREVENTION OF DRY ITCHY SKIN” (MC2 THERAPEUTICS LTD, priority 2022, published 2025).
Non-standard residues stand in square brackets, D forms with d. Residues, ends and D or L forms follow the SMILES beside them. Sar = CNCC(=O)O

Legend:
[1] = system: bovine serum albumin (BSA); assay: In vitro protein carbamylation assay (14C-potassium cyanate, scintillation counting); assay type: biochemical; details: 10 mM nucleophile, 75 μM BSA, 25 μM 14C-Potassium Cyanate, 37° C., 72 hours, n=3
Experimental: The tests were performed as described below. 200 μL of a 0.5% BSA solution, 200 μL of test solution and 100 μL of a 5 μCi/mL 14 C-Potassium Cyanate solution was mixed in an Eppendorf tube (corresponding to a final concentration of 75 μM BSA, 25 μM 14 C-Potassium Cyanate, and 10 mM nucleophile). Samples run in triplicates (n=3). The Eppendorf tubes were incubated at 37° C. for 72 hours.
After incubation a volume of 100 μL of each sample was transferred to a new Eppendorf tube containing 100 μL of a 10% trichloroacetic acid (TCA) and kept at 4° C. overnight (for precipitation of BSA). Subsequently, the precipitated BSA was separated from the buffer by centrifugation (10000 rpm, 30 seconds). The supernatant was removed and the BSA pellet 10 was resuspended in 200 μL of a 10% solution of cold TCA (4° C.). The pellet was recovered by centrifugation (10000 rpm, 30 seconds) and supernatant was discarded. The BSA pellet was resuspended in 100 μL purified water (MilliQ) and transferred to a scintillation vial. The Eppendorf tube (previously containing the BSA pellet) was rinsed with an additional 100 μL purified water which al was transferred to the relevant scintillation vial.

[2] = Aqueous stability in HBSS buffer at 40° C. (HPLC-UV); assay type: physicochemical; details: 3% wt/wt or 0.4% wt/wt in HBSS buffer, glass vials, 40° C., HPLC-UV, in % (unit assumed)
Experimental: An important aspect of formulating a stable topical product. Data in Table 4 below gives 1 month and 3 month stability data at 40° C. Compounds were dissolved at 3% wt/wt or 0.4% wt/wt (if 3% was not possible) in HBSS buffer and stored in glass vials at temperature. Samples were subsequently analyzed by HPLC-UV.

[3] = Skin homogenate study (degradation half-life, LC-MS/MS); assay type: in vitro ADME, human; details: pooled human skin homogenate, 37° C., compound working solution 40 μg/mL mixed with equal volume of homogenate
Experimental: To identify which of the dipeptides was readily subject to degradation by proteases and other cell processes in the skin, a number of compounds where tested in a skin homogenate study as described below and the results are listed in table 3.
Dermatomed human skin from multiple skin donors was pooled, homogenized, and adjusted to a tissue concentration of 100 mg tissue per mL of homogenate. The homogenate was used immediately following preparation without any additional freeze/thaw cycles. Working solutions of each compound were prepared in Dulbecco's phosphate-buffered saline (DPBS) at 40 μg/mL. All solutions were pre-heated to 37° C. Equal volumes of skin homogenate and compound working solution were combined, mixed, held at 37° C., and sampled at 0, 15, 30, 60, 120, and 240 minutes. Samples were quenched with acidic acetonitrile, centrifuged, and prepared for LC-MS/MS analysis. Peak areas of each compound at each time-point were determined by LC-MS/MS.
The individual half-life of each dipeptide was determined.
The nature of the experiment should be considered indicative of the relative stability of each of the compounds rather than an absolute correlation to what would happen in vivo. The process of homogenizing the skin is likely to greatly accelerate the degradation. However, it is clear that there is substantial variation in the relative rates for each dipeptide. (See Table 3)

NCCC(=O)N[C@@H](Cc1c[nH]cn1)C(=O)O [Ala(b)-His (L-Carnosine)]
Degree of carbamylation (% relative to HBSS control) [1]: 72.63 % relative to HBSS control | 1 month aqueous stability at 40° C. [2]: 98.4 | 3 month aqueous stability at 40° C. [2]: 99.7

C[C@H](N)C(=O)N[C@@H](C)C(=O)O [Ala-Ala] (H-Ala-Ala-OH)
Half life in skin homogenate [3]: 0.383 h

C[C@H](N)C(=O)N[C@H](C)C(=O)O [Ala-D-Ala] (H-Ala-[dA]-OH)
Half life in skin homogenate [3]: >8 h

C[C@@H](N)C(=O)NCC(=O)O [Ala-Gly (D)] (H-[dA]-Gly-OH)
Half life in skin homogenate [3]: >8 h

C[C@H](N)C(=O)NCC(=O)O [Ala-Gly] (H-Ala-Gly-OH)
Half life in skin homogenate [3]: 1 h

C[C@H](N)C(=O)O [Alanine, reference compound]
Degree of carbamylation (% relative to HBSS control) [1]: 93.54 % relative to HBSS control

Cl.N=C(N)NCCC[C@H](N)C(=O)O [Arg*HCl, reference compound]
Degree of carbamylation (% relative to HBSS control) [1]: 66.1 % relative to HBSS control

N=C(N)NCCC[C@H](N)C(=O)O [Arg, Arginine, reference compound]
Degree of carbamylation (% relative to HBSS control) [1]: 52.4 % relative to HBSS control

N[C@@H](CC(=O)O)C(=O)N[C@@H](Cc1ccccc1)C(=O)O [Asp-Phe] (H-Asp-Phe-OH)
Half life in skin homogenate [3]: 1.28 h

COC(=O)[C@H](Cc1ccccc1)NC(=O)[C@@H](N)CC(=O)O [Aspartame] (H-Asp-Phe-OMe)
Degree of carbamylation (% relative to HBSS control) [1]: 30.4 % relative to HBSS control

CC(C)C[C@H](NC(=O)[C@@H](O)[C@H](N)Cc1ccccc1)C(=O)O [Bestatin, reference compound]
Degree of carbamylation (% relative to HBSS control) [1]: 53.4 % relative to HBSS control

NC(=O)NCCC[C@H](N)C(=O)O [Citrulline, reference compound]
Degree of carbamylation (% relative to HBSS control) [1]: 81.7 % relative to HBSS control

CN(CC(=O)O)C(=N)N [Creatine, reference compound]
Degree of carbamylation (% relative to HBSS control) [1]: 103.92 % relative to HBSS control

NC(=O)CC[C@H](N)C(=O)O [Glutamine, reference compound]
Degree of carbamylation (% relative to HBSS control) [1]: 74.39 % relative to HBSS control

C[C@H](NC(=O)CN)C(=O)O [Gly-Ala] (H-Gly-Ala-OH)
Degree of carbamylation (% relative to HBSS control) [1]: 35.27 % relative to HBSS control

NCC(=O)N[C@@H](CC(=O)O)C(=O)O [Gly-Asp] (H-Gly-Asp-OH)
Half life in skin homogenate [3]: >8 h

NCC(=O)N[C@@H](CCC(N)=O)C(=O)O [Gly-Gln] (H-Gly-Gln-OH)
Degree of carbamylation (% relative to HBSS control) [1]: 32.99 % relative to HBSS control

NCC(=O)N[C@@H](CCC(=O)O)C(=O)O [Gly-Glu] (H-Gly-Glu-OH)
1 month aqueous stability at 40° C. [2]: 99.0 | 3 month aqueous stability at 40° C. [2]: 99.7

NCC(=O)NCC(=O)O [Gly-Gly] (H-Gly-Gly-OH)
Half life in skin homogenate [3]: >8 h

NCC(=O)N[C@@H](Cc1cnc[nH]1)C(=O)O [Gly-His] (H-Gly-His-OH)
Degree of carbamylation (% relative to HBSS control) [1]: 22.6 % relative to HBSS control | Half life in skin homogenate [3]: >8 h | 1 month aqueous stability at 40° C. [2]: 99.8 | 3 month aqueous stability at 40° C. [2]: 79.3

NCC(=O)N1CCC[C@H]1C(=O)O [Gly-Pro] (H-Gly-Pro-OH)
Half life in skin homogenate [3]: >8 h

CN(CC(=O)O)C(=O)CN [Gly-Sar] (H-Gly-[Sar]-OH)
Half life in skin homogenate [3]: >8 h

NCC(=O)NC(CO)C(=O)O (stereo not shown) [Gly-Ser]
Degree of carbamylation (% relative to HBSS control) [1]: 33.1 % relative to HBSS control | 1 month aqueous stability at 40° C. [2]: 97.8 | 3 month aqueous stability at 40° C. [2]: 70.7

CC(C)[C@H](NC(=O)CN)C(=O)O [Gly-Val] (H-Gly-Val-OH)
Half life in skin homogenate [3]: 0.8 h

CC(C)C[C@H](NC(=O)[C@@H](N)Cc1cnc[nH]1)C(=O)O [His-leu] (H-His-Leu-OH)
Degree of carbamylation (% relative to HBSS control) [1]: 27.18 % relative to HBSS control

N[C@@H](Cc1c[nH]cn1)C(=O)O [Histidine, reference compound]
Degree of carbamylation (% relative to HBSS control) [1]: 61.1 % relative to HBSS control

CC[C@H](C)[C@H](N)C(=O)N1CCC[C@H]1C(=O)O [Ile-Pro] (H-Ile-Pro-OH)
Degree of carbamylation (% relative to HBSS control) [1]: 41.4 % relative to HBSS control | Half life in skin homogenate [3]: 2.25 h | 1 month aqueous stability at 40° C. [2]: 99.1 | 3 month aqueous stability at 40° C. [2]: 102.0

NCCCC[C@H](N)C(=O)N1CCC[C@H]1C(=O)O [Lys-Pro] (H-Lys-Pro-OH)
Degree of carbamylation (% relative to HBSS control) [1]: 28.6 % relative to HBSS control | Half life in skin homogenate [3]: 0.867 h

NCCCC[C@H](N)C(=O)O [Lysine, reference compound]
Degree of carbamylation (% relative to HBSS control) [1]: 71.63 % relative to HBSS control

NCCNCC(=O)O [N-β-aminoethyl-Gly]
Degree of carbamylation (% relative to HBSS control) [1]: 29.7 % relative to HBSS control

O=C(O)[C@@H]1CCCN1C(=O)[C@@H]1CCCN1 [Pro-Pro] (H-Pro-Pro-OH)
Half life in skin homogenate [3]: 1.93 h

O=C(O)[C@H](CO)NC(=O)[C@@H]1CCCN1 [Pro-Ser] (H-Pro-Ser-OH)
Degree of carbamylation (% relative to HBSS control) [1]: 41.9 % relative to HBSS control | Half life in skin homogenate [3]: 4.73 h | 1 month aqueous stability at 40° C. [2]: 78.1 | 3 month aqueous stability at 40° C. [2]: 49.0

N[C@@H](CO)C(=O)N1CCC[C@H]1C(=O)O [Ser-Pro] (H-Ser-Pro-OH)
Degree of carbamylation (% relative to HBSS control) [1]: 26.4 % relative to HBSS control | Half life in skin homogenate [3]: 0.683 h | 1 month aqueous stability at 40° C. [2]: 95.5 | 3 month aqueous stability at 40° C. [2]: 88.5

NCCS(=O)(=O)O [Taurine, reference compound]
Degree of carbamylation (% relative to HBSS control) [1]: 58.17 % relative to HBSS control

NC(=O)CC(NC(=O)C(N)Cc1c[nH]c2ccccc12)C(=O)O (stereo not drawn) [Trp-Asn] (H-Trp-Asn-OH; configuration not given here)
Half life in skin homogenate [3]: 0.75 h

N[C@@H](Cc1c[nH]c2ccccc12)C(=O)NCC(=O)O [Trp-Gly] (H-Trp-Gly-OH)
Half life in skin homogenate [3]: 1.07 h

NC(Cc1c[nH]c2ccccc12)C(=O)N1CCCC1C(=O)O (stereo not shown) [Trp-Pro]
Half life in skin homogenate [3]: 0.567 h

C[C@H](NC(=O)[C@@H](N)Cc1ccc(O)cc1)C(=O)O [Tyr-Ala]
Degree of carbamylation (% relative to HBSS control) [1]: 26.1 % relative to HBSS control | Half life in skin homogenate [3]: 0.833 h | 1 month aqueous stability at 40° C. [2]: 100.4 | 3 month aqueous stability at 40° C. [2]: 94.0

NC(N)=NCCC[C@H](NC(=O)[C@@H](N)Cc1ccc(O)cc1)C(=O)O [Tyr-Arg]
Degree of carbamylation (% relative to HBSS control) [1]: 25.96 % relative to HBSS control

N[C@@H](Cc1ccc(O)cc1)C(=O)N1CCC[C@H]1C(=O)O [Tyr-Pro] (H-Tyr-Pro-OH)
Degree of carbamylation (% relative to HBSS control) [1]: 32.8 % relative to HBSS control | Half life in skin homogenate [3]: 0.483 h

CC(C)[C@H](N)C(=O)N1CCC[C@H]1C(=O)O [Val-Pro] (H-Val-Pro-OH)
Degree of carbamylation (% relative to HBSS control) [1]: 22.1 % relative to HBSS control | Half life in skin homogenate [3]: 0.65 h | 1 month aqueous stability at 40° C. [2]: 90.5 | 3 month aqueous stability at 40° C. [2]: 80.9

CC(C)[C@H](N)C(=O)N[C@@H](Cc1ccc(O)cc1)C(=O)O [Val-Tyr] (H-Val-Tyr-OH)
Degree of carbamylation (% relative to HBSS control) [1]: 28.9 % relative to HBSS control | Half life in skin homogenate [3]: <0.125 h | 1 month aqueous stability at 40° C. [2]: 100.7 | 3 month aqueous stability at 40° C. [2]: 98.2
